Test results: patent publication US20240099944A1, “Stable Skin Care Compositions Containing a Retinoid” (priority 2022, published 2024)

Assay: Yellow discoloration (b-value) by Color Test Method, accelerated stability 60° C. for two weeks
Type: physicochemical
Conditions: away from direct light, Example 2 with additional ingredient compared to Example 2
Protocol: This test was performed under accelerated stability conditions of 60° C., away from direct light for two weeks and the samples were stored in containers that limited the free flow of oxygen. […] The b-value was determined by the Color Test Method, described hereafter.
In Example 2, the DMDM hydantoin and iodopropynyl butylcarbamate preservative is replaced with a preservative system comprising hydroxyacetophenone and phenoxyethanol.
To measure the color of the compositions of the present invention, approximately 8 mL of the product to be tested is transferred into a petri dish (35×10 mm disposable) using a syringe. The Petri dish is then placed on the black half of a standard opacity chart (Form N2A, Leneta Company of Manwah, NJ or the equivalent thereof, of which the top half is black and the bottom half is white). The color (L, a, and b values) of the product in the petri dish is then measured using an integrated sphere spectrophotometer with settings selected to exclude specular reflection. The value for “a” correlates to a value along the red-green (horizontal) axis, and the value for “b” correlates to a value along the blue-yellow (vertical) axis. […] A more positive or negative value represents a more intense color. […]

O=S([O-])[O-].[Na+].[Na+] [sodium sulfite]
b-value vs. Example 2 (Control): dramatically reduced the composition's b-value
